Experimental data reported in PubChem BioAssay AID434951 (Broad Institute, 2010).
Calls of active or inactive are those of the source.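 The calls were made as follows: active = a fitted half-maximal concentration EC50 for the rise in nuclear signal no higher than ten times the top dose tested; inconclusive = flat fit with activity between 30% and 70%, or unusable fit; inactive = EC50 beyond ten times the top dose.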

These compounds were tested against Hypoxia-inducible factor 1-alpha (Homo sapiens) (UniProt Q16665) (assay: activators of HIF1alpha nuclear accumulation, confirmation, imaging, fluorescence, U2OS GFP-HIF1alpha (AID 434951)). Details: U2OS GFP-HIF1alpha nuclear intensity, high-content imaging.
Hypoxia-inducible factor 1-alpha (Homo sapiens), sequence (Q16665 whole entry, looked up): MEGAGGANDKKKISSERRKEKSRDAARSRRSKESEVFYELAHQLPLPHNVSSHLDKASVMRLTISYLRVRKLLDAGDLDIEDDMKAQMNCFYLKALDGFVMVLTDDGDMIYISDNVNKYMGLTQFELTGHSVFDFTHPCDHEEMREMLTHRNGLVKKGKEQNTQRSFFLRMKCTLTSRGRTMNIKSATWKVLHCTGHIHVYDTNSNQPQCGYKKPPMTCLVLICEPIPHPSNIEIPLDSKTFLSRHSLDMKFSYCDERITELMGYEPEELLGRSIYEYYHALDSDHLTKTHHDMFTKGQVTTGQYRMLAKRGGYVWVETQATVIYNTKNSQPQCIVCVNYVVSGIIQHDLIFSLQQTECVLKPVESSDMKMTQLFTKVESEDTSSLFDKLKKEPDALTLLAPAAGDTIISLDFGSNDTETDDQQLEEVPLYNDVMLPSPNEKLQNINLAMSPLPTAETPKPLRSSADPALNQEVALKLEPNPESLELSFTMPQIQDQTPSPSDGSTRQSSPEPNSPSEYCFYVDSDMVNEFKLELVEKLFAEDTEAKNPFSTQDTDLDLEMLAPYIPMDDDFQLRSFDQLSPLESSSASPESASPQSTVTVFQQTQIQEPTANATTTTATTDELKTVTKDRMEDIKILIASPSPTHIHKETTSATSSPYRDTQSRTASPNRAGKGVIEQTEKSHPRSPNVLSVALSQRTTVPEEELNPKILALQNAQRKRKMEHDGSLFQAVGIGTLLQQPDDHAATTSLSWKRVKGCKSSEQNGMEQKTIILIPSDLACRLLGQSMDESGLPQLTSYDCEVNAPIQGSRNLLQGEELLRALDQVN
With `CC1=NC(C#N)=C(C#N)NC(C)(C)C1` the EC50 was > 35 µM (inactive). `O=C(c1ccc(Cl)cc1Cl)N1CCN(c2ccc(N3CCOCC3)nn2)CC1` was tested, and the EC50 was > 35 µM (inactive). For `CC1CCN(C(=O)CS(=O)(=O)Cc2ccccc2)CC1`, the EC50 was > 35 µM (inactive). Compound `Cc1cc(/C=N/n2c(COc3ccccc3)nc3ccccc3c2=O)c(O)c([N+](=O)[O-])c1` has an EC50 of 24.5 µM. In the case of `Cc1cc(OCC(=O)Nc2ccc3c(c2)OCCO3)cc(C)c1Cl`, the EC50 is reported as > 35 µM (inactive). `Cc1ccc(C2(C)NC(=O)N(CC(=O)NC(=O)NC(C)(C)C)C2=O)cc1` (centres undefined) was tested, and the EC50 was > 35 µM (inactive). In the case of `COc1cccc(OCc2cc(C(=O)N3CCN(c4ccccc4OC)CC3)no2)c1`, the EC50 is reported as > 35 µM (inactive). In the case of `O=C(Cc1ccc(S(=O)(=O)N2CCOCC2)s1)Nc1ccc(S(=O)(=O)N2CCCCC2)cc1`, the EC50 is reported as > 35 µM (inactive). In the case of `O=C(Nc1ccccc1)N(C1=NCCCCS1)c1cccc2ccccc12`, the EC50 is reported as > 35 µM (inactive). With `O=C(NCCCn1ccnc1)c1cc(-c2ccccc2)on1` the EC50 was 3.8 µM. With `CC(=O)N1c2ccc(S(=O)(=O)NCCc3ccccc3)cc2CC1C` (centres undefined) the EC50 was > 35 µM (inactive). `CCOC(=O)Cc1nn(CC)c(=O)c2ccccc12` was tested, and the EC50 was > 35 µM (inactive). `CC(=O)c1cccc(NC(=O)CN(C)S(=O)(=O)c2cccc3nsnc23)c1` was tested, and the EC50 was > 35 µM (inactive). With `CCN(CC)S(=O)(=O)c1ccc(N/N=C/c2ccc(O)cc2O)nc1` the EC50 was 0.715 µM. In the case of `Cc1onc(-c2ccccc2)c1C(=O)Nc1ccc(S(=O)(=O)N2CCCC2)cc1`, the EC50 is reported as > 35 µM (inactive). For `O=S(=O)(CCSc1nc2ccccc2s1)c1nc2ccccc2s1`, the EC50 was > 35 µM (inactive). `COc1cc(OC)c2nc(C)c3c(c2c1)N(c1ccc(O)cc1)CC3` was tested, and the EC50 was > 35 µM (inactive). In the case of `Cc1cc(Oc2ccccc2)nc(N2CCOCC2)n1`, the EC50 is reported as > 35 µM (inactive). For `CC1CN/C(=C\C(=O)c2ccc(Br)cc2)C(=O)N1` (centres undefined), the EC50 was > 35 µM (inactive). `CCCNC(=S)N1CCCC(c2nc3ccccc3[nH]2)C1` (centres undefined) was tested, and the EC50 was > 35 µM (inactive). With `c1ccc(CSc2ccc(-c3ccccn3)nn2)cc1` the EC50 was 5.92 µM. Work on `CC(C)C(=O)NC(c1ccc(Cl)cc1Cl)c1ccc2cccnc2c1O` (centres undefined) yielded an EC50 of 4.88 µM. In the case of `O=C(Nc1nc2c(F)cc(F)cc2s1)c1ccccn1`, the EC50 is reported as 5.5 µM. In the case of `COC(=O)c1cc(S(=O)(=O)NCc2ccccc2OC)cn1C`, the EC50 is reported as > 35 µM (inactive). `CC(=O)Nc1ccc(S(=O)(=O)/N=C2\C(=O)c3ccccc3C([O-])=C2n2cc[n+](-c3ccccn3)c2)cc1` was tested, and the EC50 was > 35 µM (inactive). With `Cc1nn(C(=O)c2cccnc2)c(C)c1Sc1ccccc1` the EC50 was > 35 µM (inactive). In the case of `CC1CCN(S(=O)(=O)c2ccc3c4c2CC(=O)N4CC(C)S3)CC1` (centres undefined), the EC50 is reported as > 35 µM (inactive). `O=[N+]([O-])c1cc(Cl)cc(/C=N\Nc2ccccn2)c1O` showed an EC50 of 1.65 µM. With `CCc1cc2c(=O)[nH]c(-c3ccccn3)nc2s1` the EC50 was 4.75 µM. `COC(=O)C1=C(C)N(Cc2ccc(OC)cc2)C(=O)C1` was tested, and the EC50 was > 35 µM (inactive). For `COc1ccc2nc(-c3cccc(N)c3)[nH]c2c1`, the EC50 was > 35 µM (inactive). With `CCc1ccc(NC(=O)COC(=O)c2cccs2)cc1` the EC50 was > 35 µM (inactive). For `COc1ccc(/C=N/NC(=S)Nc2cc(S(=O)(=O)N3CCOCC3)ccc2N2CCOCC2)cc1O`, the EC50 was > 35 µM (inactive). For `COc1ccc(NC(=O)Nc2ccc(Br)cn2)cc1`, the EC50 was > 35 µM (inactive). `CC(C)(C)NC(=O)COC(=O)c1ccc(Cl)nc1` was tested, and the EC50 was > 35 µM (inactive). In the case of `CCC(Sc1nc(C)cc(=O)[nH]1)C(=O)Nc1sc2c(c1C#N)CCCC2` (centres undefined), the EC50 is reported as > 35 µM (inactive). In the case of `CCc1ccc(OCC(=O)Nc2ccncc2)c(Br)c1`, the EC50 is reported as > 35 µM (inactive). In the case of `CCn1cc(C(=O)NCC(OC)OC)c(=O)c2cc(S(=O)(=O)N3CCC(C)CC3)ccc21`, the EC50 is reported as > 35 µM (inactive). With `COc1ccc(OC)c(C2=Nn3c(nnc3-c3cc(C)[nH]n3)SC2)c1` the EC50 was > 35 µM (inactive). In the case of `CC1(C)CC(=O)C(CC2C(=O)CC(C)(C)CC2=O)C(=O)C1`, the EC50 is reported as > 35 µM (inactive). In the case of `COc1ccccc1CNC(=O)c1cccc(NC(=O)c2ccccc2)c1`, the EC50 is reported as > 35 µM (inactive). With `Cc1cc(C)c2c(N)c3ccccc3nc2n1` the EC50 was 17.4 µM. With `CS(=O)(=O)n1nc(-c2ccccc2)nc1NCc1ccco1` the EC50 was > 35 µM (inactive). In the case of `c1ccc(CSc2nnc(-c3ccco3)o2)cc1`, the EC50 is reported as > 35 µM (inactive). `NC(=O)c1sc2nccc(Nc3ccccc3)c2c1N` was tested, and the EC50 was > 35 µM (inactive). `CCOC(=O)c1c(-c2ccccc2)oc2ccc(OCC(O)CN(C)C)cc12` (centres undefined) was tested, and the EC50 was 33.8 µM. With `COC(=O)C1=Nc2ccccc2/C1=C\c1c(O)n(-c2cc(OC)ccc2OC)c(=O)[nH]c1=O` the EC50 was > 35 µM (inactive). In the case of `O=C(CSc1c[nH]c2ccccc12)NCc1ccc2c(c1)OCO2`, the EC50 is reported as > 35 µM (inactive). For `O=C1C(=O)c2ccccc2C(O)=C1c1cccc([N+](=O)[O-])c1`, the EC50 was > 35 µM (inactive). For `CCC1CCc2sc(C(=O)NCc3ccccn3)cc2C1` (centres undefined), the EC50 was > 35 µM (inactive). In the case of `O=C(CN1CCC(C(=O)c2ccc(Cl)cc2)CC1)Nc1ccc2c(c1)OCCO2`, the EC50 is reported as > 35 µM (inactive). With `CCN(CC)CCCNC(=O)C1c2ccccc2C(=O)N(C)C1c1ccc(OC)cc1` (centres undefined) the EC50 was > 35 µM (inactive). With `Cc1cc(=O)[nH]c(SCC(=O)Nc2nonc2C)n1` the EC50 was > 35 µM (inactive). For `COc1ccc(O)c(/C=N/NC(=S)Nc2cccc(S(=O)(=O)N(C)C)c2)c1`, the EC50 was > 35 µM (inactive). With `Cc1ccc(CSc2nnc(CCCCCNC(=O)OC(C)(C)C)o2)cc1` the EC50 was > 35 µM (inactive). `S=c1[nH]nc(-c2ccco2)n1/N=C/c1cccs1` was tested, and the EC50 was > 35 µM (inactive). Work on `CCOc1cccc(/C=N/Nc2ccc(S(=O)(=O)N(CC)CC)cn2)c1O` yielded an EC50 of 3.59 µM. `Cc1ccc(S(=O)(=O)N2CCOC23CCN(C(=O)c2cc(Cl)ccc2Cl)CC3)cc1` was tested, and the EC50 was > 35 µM (inactive). `COc1ccc2[nH]c(C(=O)N/N=C/c3ccc(O)cc3O)cc2c1` was tested, and the EC50 was 8.67 µM. In the case of `CCOCC(=O)Nc1ccc(S(=O)(=O)N2CCC(c3nc4ccccc4[nH]3)CC2)cc1`, the EC50 is reported as > 35 µM (inactive). With `Cc1cc(C)c(C(=O)N2CCCC(N3CCN(c4cccc(C(F)(F)F)c4)CC3)C2)o1` (centres undefined) the EC50 was > 35 µM (inactive). For `C1CCC2(CC1)C1=C(CCCC1)Nc1nnnn12`, the EC50 was > 35 µM (inactive). `CCN(Cc1ccccc1)C(=O)CCNS(=O)(=O)c1ccc2c(c1)CC(C)N2C(C)=O` (centres undefined) was tested, and the EC50 was > 35 µM (inactive). For `O=C(CCCc1ccccc1)Nc1ccccn1`, the EC50 was > 35 µM (inactive). With `C1CC1Cc1noc(CN2CCN(CC3CC3)CC2)n1` the EC50 was > 35 µM (inactive). For `Oc1ccccc1N=Nc1ccccc1O`, the EC50 was 2.01 µM. In the case of `COC(=O)CNC(=O)CSc1nnc2cc(C)c3ccccc3n12`, the EC50 is reported as > 35 µM (inactive). In the case of `Cc1c(/C=N/NC(N)=O)c2ccccn2c1C(=O)c1ccncc1`, the EC50 is reported as > 35 µM (inactive). With `O=C(CCc1ccccc1)N/N=C/c1cc(Br)ccc1O` the EC50 was 13.2 µM. With `Cc1ccc(C(=O)CSc2cc(C)[nH]c(=O)n2)cc1` the EC50 was > 35 µM (inactive). In the case of `O=C(COc1ccc(Cl)cc1Cl)N/N=C/CCc1ccccc1`, the EC50 is reported as > 35 µM (inactive). With `CCc1ccc(C2C(=O)c3ccccc3C2=O)cc1` the EC50 was > 35 µM (inactive). For `COc1cc(C(=O)N2CCN(C(=O)Cc3ccccc3)CC2)cc(OC)c1OC`, the EC50 was > 35 µM (inactive). `CC(C)CC(=O)NC(c1cccs1)c1ccc2cccnc2c1O` (centres undefined) showed an EC50 of 6.26 µM. With `O=C1CN(c2ccccc2)C(=O)N1` the EC50 was > 35 µM (inactive). With `COc1ccc(N2C(=O)[C@@H]3C(c4cccnc4)=NO[C@@H]3C2=O)cc1` the EC50 was > 35 µM (inactive). In the case of `COC(=O)CN1C(=O)[C@H]2[C@@H](c3ccc(C)o3)N3C(=O)CN(CC4CC4)C(=O)[C@@]3(Cc3ccccc3)[C@H]2C1=O`, the EC50 is reported as > 35 µM (inactive). For `CCOc1ccccc1NC(=O)CSc1ncnc2c1oc1ccccc12`, the EC50 was > 35 µM (inactive). `Cc1nc(-n2[nH]c3c(c2=O)CCCC3)[nH]c(=O)c1Cc1ccccc1` showed an EC50 of 9.42 µM. For `COc1ccccc1NC(=O)C1CCN(C(=O)c2ccc(C(C)(C)C)cc2)CC1`, the EC50 was > 35 µM (inactive). For `COC(=O)CC1C(=O)NCCN1C(=O)CSc1nnc(Nc2ccc(OC)cc2)s1` (centres undefined), the EC50 was > 35 µM (inactive). In the case of `Cc1ccc(C(=O)NC(=S)NNS(=O)(=O)c2ccc(C)cc2)cc1`, the EC50 is reported as > 35 µM (inactive). For `O=C(CSc1nnc(-c2ccncc2)o1)N1CCCCCC1`, the EC50 was > 35 µM (inactive). For `O=C(COc1cccc2ccccc12)Nc1ccc(Cl)cc1C(=O)O`, the EC50 was > 35 µM (inactive). With `COc1cccc(C(=O)SC2=NCCS2)c1` the EC50 was > 35 µM (inactive). For `CC(=O)Cn1c(=O)c2c(nc3n2CCCN3Cc2ccccc2)n(C)c1=O`, the EC50 was > 35 µM (inactive). With `O=C(N/N=C/c1c(O)ccc2ccccc12)c1ccc(CO)nc1` the EC50 was 6.6 µM. In the case of `CCN(CC)c1ccc(NC(=O)CSc2nc3nc(C)cc(C)c3c(=O)[nH]2)cc1`, the EC50 is reported as > 35 µM (inactive). In the case of `CCOc1ccccc1N(CC(=O)N/N=C/c1cc(Br)ccc1OC)S(C)(=O)=O`, the EC50 is reported as > 35 µM (inactive). With `CCOc1ccccc1NC(=O)COc1ccc2c(c1)OCO2` the EC50 was > 35 µM (inactive). In the case of `Cc1noc(C(=O)Nc2sc3c(c2C#N)CCC3)c1Cl`, the EC50 is reported as > 35 µM (inactive). With `Oc1c(N=Nc2ccccn2)ccc2ccccc12` the EC50 was 3.98 µM. `CCOC(=O)c1c(C)[nH]c(C(=O)N/N=C\c2ccccc2O)c1C` showed an EC50 of 5.66 µM. With `CCSc1nc(NCCN(C)C)c2c3c(sc2n1)COC(C)(CC)C3` (centres undefined) the EC50 was > 35 µM (inactive). For `Cc1ccc(NC2CCCN(C(=O)C3CCCCC3)C2)cc1C` (centres undefined), the EC50 was > 35 µM (inactive). `CN(Cc1cccs1)C(=O)CSc1nc(N)cc(N)n1` was tested, and the EC50 was > 35 µM (inactive). For `O=C(CSc1ccc(-c2ccccn2)nn1)Nc1nccs1`, the EC50 was 10.6 µM. With `CCCN(CCC)C(=S)Nc1cc(C(=O)OC)ccc1C(=O)OC` the EC50 was > 35 µM (inactive). `COc1cc(C(=O)Nc2sc(C)c(C)c2C(=O)O)cc(OC)c1OC` was tested, and the EC50 was > 35 µM (inactive). With `Cn1ncc(Br)c1NC(=O)CSc1ccc(Cl)cc1` the EC50 was > 35 µM (inactive). For `O=C(N/N=C\c1c(O)ccc2ccccc12)c1cncc(Br)c1`, the EC50 was 6.48 µM. `O=C(NCCCn1ccnc1)c1cc(-c2cccs2)on1` gave an EC50 of 2.68 µM. For `O=C(O)c1ccccc1OCCOc1ccccc1C(=O)O`, the EC50 was > 35 µM (inactive). `COc1cccc(/C=N\NC(=O)Cn2nnc3ccccc32)c1O` was tested, and the EC50 was > 35 µM (inactive).
